Laboratory results published in PubChem BioAssay (NCI).
Values joined by “and” are separate entries in the source; they are usually repeats but may differ in a detail not shown here. Equal entries are not always repeated.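 A five-concentration, 48-hour dose response in 96-well plates underlies each endpoint, interpolated linearly between surrounding concentrations. Abbreviation: GI50, concentration required for 50% inhibition of growth. Definition used: TGI = concentration required for complete inhibition of growth.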

Tests used:
Assay in all cases: DTP human tumour cell line panel, 48 h
BT-549 breast = tested on: BT-549 breast
EKVX NSCLC = tested on: EKVX NSCLC
HCT-15 colon = tested on: HCT-15 colon
HT29 colon = tested on: HT29 colon
MDA-MB-231 breast = tested on: MDA-MB-231 breast
NCI-H226 lung = tested on: NCI-H226 lung
PC-3 prostate = tested on: PC-3 prostate
RPMI-8226 leukemia = tested on: RPMI-8226 leukemia
SR leukemia = tested on: SR leukemia
UO-31 renal = tested on: UO-31 renal

O=C1c2ccccc2-c2c1c1c(O)cccc1n2CCCc1ccccc1
GI50 (BT-549 breast): 16 µM | TGI (BT-549 breast): 63.6 µM | GI50 (EKVX NSCLC): 10.3 µM | TGI (EKVX NSCLC): 98.3 µM | GI50 (HCT-15 colon): 4.11 µM | TGI (HCT-15 colon): > 100 µM | GI50 (HT29 colon): 42.8 µM | TGI (HT29 colon): > 100 µM | GI50 (MDA-MB-231 breast): 70 µM | TGI (MDA-MB-231 breast): > 100 µM | GI50 (NCI-H226 lung): 11.2 µM | TGI (NCI-H226 lung): 50.9 µM | GI50 (PC-3 prostate): 16.2 µM | TGI (PC-3 prostate): > 100 µM | GI50 (RPMI-8226 leukemia): 13.7 µM | TGI (RPMI-8226 leukemia): 51.9 µM | GI50 (SR leukemia): 4.05 µM | TGI (SR leukemia): > 100 µM | GI50 (UO-31 renal): 7.66 µM | TGI (UO-31 renal): > 100 µM

O=C(O)CN(CC(=O)O)c1ccccc1
TGI (BT-549 breast): > 100 µM | TGI (EKVX NSCLC): > 100 µM | TGI (HCT-15 colon): > 100 µM | TGI (HT29 colon): > 100 µM | TGI (MDA-MB-231 breast): > 100 µM | TGI (NCI-H226 lung): > 100 µM | TGI (PC-3 prostate): > 100 µM | TGI (RPMI-8226 leukemia): 92.1 µM | TGI (SR leukemia): > 100 µM | TGI (UO-31 renal): > 100 µM

NC(Cc1ccc(O)cc1)C(=O)N/N=C/c1ccc(N(CCCl)CCCl)cc1 (configuration not stated)
GI50 (BT-549 breast): 19.3 µM | TGI (BT-549 breast): > 100 µM | GI50 (EKVX NSCLC): 24.2 µM | TGI (EKVX NSCLC): > 100 µM | GI50 (HCT-15 colon): 38.6 µM | TGI (HCT-15 colon): > 100 µM | GI50 (HT29 colon): 28.5 µM | TGI (HT29 colon): > 100 µM | GI50 (MDA-MB-231 breast): 5.25 µM | TGI (MDA-MB-231 breast): 32.6 µM | GI50 (NCI-H226 lung): 3.01 µM | TGI (NCI-H226 lung): 31.6 µM | GI50 (PC-3 prostate): 11.7 µM | TGI (PC-3 prostate): > 100 µM | GI50 (RPMI-8226 leukemia): 10.1 µM | TGI (RPMI-8226 leukemia): > 100 µM | GI50 (SR leukemia): 0.189 µM | TGI (SR leukemia): 20.4 µM | GI50 (UO-31 renal): 3.95 µM | TGI (UO-31 renal): 23.6 µM

CS(=O)/C(C#N)=C\C=C\c1cccc(Cl)c1 (configuration not stated)
GI50 (BT-549 breast): 2 µM | TGI (BT-549 breast): 11.9 µM | GI50 (EKVX NSCLC): 3.66 µM | TGI (EKVX NSCLC): 16.7 µM | GI50 (HCT-15 colon): 1.11 µM | TGI (HCT-15 colon): 4.04 µM | GI50 (HT29 colon): 3.26 µM | TGI (HT29 colon): 13.7 µM | GI50 (MDA-MB-231 breast): 2.73 µM | TGI (MDA-MB-231 breast): 11.7 µM | GI50 (NCI-H226 lung): 5.02 µM | TGI (NCI-H226 lung): 20.3 µM | GI50 (PC-3 prostate): 2.68 µM | TGI (PC-3 prostate): 12.8 µM | GI50 (RPMI-8226 leukemia): 2.44 µM | TGI (RPMI-8226 leukemia): 12 µM | GI50 (SR leukemia): 0.636 µM | TGI (SR leukemia): > 100 µM | GI50 (UO-31 renal): 1.97 µM | TGI (UO-31 renal): 6.56 µM

Cc1cn(C2CC(N=[N+]=[N-])C(CO)O2)c(=O)[nH]c1=O (configuration not stated)
TGI (BT-549 breast): > 1000 µM | GI50 (EKVX NSCLC): > 1000 µM | TGI (EKVX NSCLC): > 1000 µM | GI50 (HCT-15 colon): > 1000 µM | TGI (HCT-15 colon): > 1000 µM | TGI (HT29 colon): > 1000 µM | GI50 (MDA-MB-231 breast): > 1000 µM | TGI (MDA-MB-231 breast): > 1000 µM | GI50 (NCI-H226 lung): > 1000 µM | TGI (NCI-H226 lung): > 1000 µM | TGI (PC-3 prostate): > 1000 µM | GI50 (RPMI-8226 leukemia): 20.4 µM | TGI (RPMI-8226 leukemia): 184 µM | TGI (SR leukemia): > 1000 µM | GI50 (UO-31 renal): > 1000 µM | TGI (UO-31 renal): > 1000 µM

COc1cccc(C(C#N)NC23CC4CC(CC(C4)C2)C3)c1 (configuration not stated)
TGI (BT-549 breast): > 100 µM | TGI (EKVX NSCLC): > 100 µM | TGI (HCT-15 colon): > 100 µM | TGI (HT29 colon): > 100 µM | TGI (MDA-MB-231 breast): > 100 µM | TGI (NCI-H226 lung): > 100 µM | TGI (PC-3 prostate): > 100 µM | TGI (RPMI-8226 leukemia): > 100 µM | TGI (SR leukemia): > 100 µM | TGI (UO-31 renal): > 100 µM

Nc1ncnc2c1nc(N)n2C1OC(CO)C(O)C1O (configuration not stated)
GI50 (BT-549 breast): 1.65 µM | TGI (BT-549 breast): 3.36 µM | GI50 (EKVX NSCLC): 0.231 µM | TGI (EKVX NSCLC): 1.27 µM | GI50 (HCT-15 colon): 0.433 µM | TGI (HCT-15 colon): 10.7 µM | GI50 (HT29 colon): 0.0589 µM | TGI (HT29 colon): 1.31 µM | GI50 (MDA-MB-231 breast): 0.518 µM | TGI (MDA-MB-231 breast): 4.86 µM | GI50 (NCI-H226 lung): 1.03 µM | TGI (NCI-H226 lung): 3.38 µM | GI50 (PC-3 prostate): 1.07 µM | TGI (PC-3 prostate): 8.21 µM | GI50 (RPMI-8226 leukemia): 0.973 µM | TGI (RPMI-8226 leukemia): 6.48 µM | GI50 (SR leukemia): 0.524 µM | TGI (SR leukemia): 4.38 µM | GI50 (UO-31 renal): 0.295 µM | TGI (UO-31 renal): 2.82 µM

CCCCCCCCCCCCNC(=O)[C@H]1CSC(c2cc(Br)cs2)N1 (some centres not stated)
GI50 (BT-549 breast): 0.894 µM | TGI (BT-549 breast): 1.78 µM | GI50 (EKVX NSCLC): 0.918 µM | TGI (EKVX NSCLC): 1.77 µM | GI50 (HCT-15 colon): 1.03 µM | TGI (HCT-15 colon): 2.38 µM | GI50 (HT29 colon): 1.59 µM | TGI (HT29 colon): 5.76 µM | GI50 (MDA-MB-231 breast): 0.83 µM | TGI (MDA-MB-231 breast): 1.61 µM | GI50 (NCI-H226 lung): 0.895 µM | TGI (NCI-H226 lung): 1.76 µM | GI50 (PC-3 prostate): 0.981 µM | TGI (PC-3 prostate): 2.25 µM | GI50 (RPMI-8226 leukemia): 1.38 µM | TGI (RPMI-8226 leukemia): 3.61 µM | GI50 (SR leukemia): 0.967 µM | TGI (SR leukemia): 2.27 µM | GI50 (UO-31 renal): 0.979 µM | TGI (UO-31 renal): 2.42 µM

O=C1/C(=C\c2ccc([N+](=O)[O-])cc2)CS(=O)(=O)C/C1=C/c1ccc([N+](=O)[O-])cc1
TGI (BT-549 breast): 0.845 µM and 1.12 µM | GI50 (EKVX NSCLC): 0.348 µM | TGI (EKVX NSCLC): 4.95 µM | GI50 (HCT-15 colon): 0.058 µM | TGI (HCT-15 colon): 0.258 µM and 0.638 µM | GI50 (HT29 colon): 0.127 µM | TGI (HT29 colon): 0.382 µM and 2.77 µM | GI50 (MDA-MB-231 breast): 0.36 µM | TGI (MDA-MB-231 breast): 0.533 µM | GI50 (NCI-H226 lung): 0.163 µM | GI50 (PC-3 prostate): 0.194 µM | TGI (PC-3 prostate): 0.713 µM and 1.51 µM | TGI (RPMI-8226 leukemia): 0.547 µM | GI50 (SR leukemia): 0.908 µM | GI50 (UO-31 renal): 0.605 µM | TGI (UO-31 renal): 0.366 µM and 1.85 µM

COc1cc(-c2ccc(Nc3ccccc3C(=O)O)c(OC)c2)ccc1Nc1ccccc1C(=O)O
TGI (BT-549 breast): 57.4 µM | TGI (EKVX NSCLC): > 97.4 µM | TGI (HCT-15 colon): 51.6 µM | TGI (HT29 colon): > 100 µM | TGI (MDA-MB-231 breast): > 91.6 µM | TGI (NCI-H226 lung): 60.7 µM | TGI (PC-3 prostate): > 67.4 µM | TGI (RPMI-8226 leukemia): > 95.8 µM | TGI (SR leukemia): > 84.6 µM | TGI (UO-31 renal): > 58.9 µM

COc1ccccc1N(C(C)=O)C1=C(Cl)C(=O)c2ccccc2C1=O
GI50 (BT-549 breast): 1.89 µM | TGI (BT-549 breast): 8.25 µM | GI50 (EKVX NSCLC): 0.751 µM | TGI (EKVX NSCLC): 6.95 µM | GI50 (HCT-15 colon): 1.04 µM | TGI (HCT-15 colon): 2.61 µM | GI50 (HT29 colon): 1.89 µM | TGI (HT29 colon): 4.45 µM | GI50 (MDA-MB-231 breast): 2.03 µM | TGI (MDA-MB-231 breast): 6.23 µM | GI50 (NCI-H226 lung): 1.51 µM | TGI (NCI-H226 lung): 6.01 µM | GI50 (PC-3 prostate): 1.17 µM | TGI (PC-3 prostate): 10.8 µM | GI50 (RPMI-8226 leukemia): 0.833 µM | TGI (RPMI-8226 leukemia): 3.96 µM | GI50 (SR leukemia): 1.78 µM | TGI (SR leukemia): 5.16 µM | GI50 (UO-31 renal): 1.03 µM | TGI (UO-31 renal): 2.56 µM

O=C(NCCSSCCNC(=O)/C(Cc1ccc(O)c(Br)c1)=N/O)/C(Cc1ccc(O)c(Br)c1)=N/O
TGI (BT-549 breast): 15 µM | TGI (EKVX NSCLC): > 24 µM | TGI (HCT-15 colon): 14.4 µM | TGI (HT29 colon): > 21.4 µM | TGI (MDA-MB-231 breast): 8.26 µM | TGI (NCI-H226 lung): 41.9 µM | TGI (PC-3 prostate): 8.21 µM | TGI (RPMI-8226 leukemia): 5.35 µM | TGI (SR leukemia): 7.08 µM | TGI (UO-31 renal): 8.58 µM

CC[C@@]1(O)C(=O)OCc2c1cc1n(c2=O)Cc2cc3c(Cl)c4c(cc3nc2-1)OCO4
GI50 (BT-549 breast): < 0.001 µM | TGI (BT-549 breast): 0.897 µM and 0.382 µM | GI50 (EKVX NSCLC): 5.93 µM and 1.91 µM | TGI (EKVX NSCLC): > 100 µM | GI50 (HCT-15 colon): 0.215 µM and 0.178 µM | TGI (HCT-15 colon): > 100 µM | TGI (HT29 colon): 7.85 µM | GI50 (MDA-MB-231 breast): 0.00975 µM and 0.0722 µM | TGI (MDA-MB-231 breast): > 100 µM | GI50 (NCI-H226 lung): < 0.001 µM | TGI (NCI-H226 lung): 0.0701 µM | TGI (PC-3 prostate): > 100 µM | TGI (RPMI-8226 leukemia): 4.38 µM | GI50 (SR leukemia): < 0.001 µM | GI50 (UO-31 renal): < 0.001 µM
